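96-well plates; 48 h exposure; 5 concentrations. Endpoints by linear interpolation between flanking doses. Not reached: highest tested concentration assigned. Abbreviation: GI50, concentration required for 50% inhibition of growth. The concentration for full growth arrest is given as TGI.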
Each compound was assayed on TK-10 renal (assay: NCI tumour cell line growth inhibition, 48 h).

Row | SMILES | TGI [µM]
1 | O=C(O)C1C2CCC(O2)C1C(=O)Nc1cccc2cccnc12 (stereo not given) | > 100
2 | COc1cccc2c1Cc1cc(-c3ccccc3)[n+](C)n1-2 | > 100
3 | O=C(OCN1C(=O)C2C3C=CC(C2C1=O)C1C2C(=O)N(COC(=O)C4CCCN4)C(=O)C2C31)C1CCCN1 (stereo not given) | > 100
4 | O=C(C[n+]1ccc2ccccc2c1)c1ccc2ccc3ccccc3c2c1 | 8.74
5 | NCCCCc1cc(O)c2c(c1O)C(=O)c1ccccc1C2=O | 34
6 | Cc1ccccc1C(=O)N/N=C/c1ccc(Sc2nccn2C)c([N+](=O)[O-])c1 | > 100
7 | CCn1c(-c2ccc(N=NNc3ccc(-c4n[nH]c(=S)n4CC)cc3)cc2)n[nH]c1=S | > 100
8 | CC(=O)C1=C(C)N(c2ccc(C)cc2)C2(O)C=CC(=O)C3C(=O)N(c4ccccc4)C(=O)C132 (stereo not given) | 40.3
9 | COc1ccc2c(c1)[nH]c1c(/C=C/c3ccccc3)nccc12 | 39.7
10 | Clc1cc2c(cc1Cl)CC(NCCN1CCCC1)CC2 (stereo not given) | 27.6
11 | [N-]=[N+]=CC(=O)c1ccccc1C#CCCc1ccccc1 | > 100
12 | CCN(CC(=O)O)C(=O)c1cccnc1 | > 100
13 | NCCSC(c1ccccc1)c1ccccc1 | 31.8
14 | CCCCCCCCC/C=C/C=C/C(=O)NCC(=O)NC1C(O)C(O)C(Nc2ncnc3nc[nH]c23)OC1C(O)CO (stereo not given) | 1.71
15 | C[C@H](CCC(=O)O)[C@H]1CC[C@@]2(C)[C@@H]3C(=O)C[C@H]4C(C)(C)[C@@H](O)CC[C@]4(C)[C@H]3C(=O)C[C@]12C | > 100

The compounds below were run on DU-145 prostate (assay: NCI tumour cell line growth inhibition, 48 h).

Row | SMILES | TGI [µM] | GI50 [µM]
16 | CCOC(=O)C1=NN(c2ccc(C)cc2)C2=CC(C)=NN(C)C(=S)N21 | > 100 | 
17 | O=C(c1cccs1)N(C(=S)OC12CC3CC(CC(C3)C1)C2)c1ccccc1 | > 100 | 
18 | C(=N\NC1=NCCN1)/c1ccc(-c2cn3cc(/C=N/NC4=NCCN4)ccc3n2)cc1 | 37.7 | 
19 | CC1CC[C@@]2(OC1)OC1C[C@H]3[C@@H]4CC=C5CC(OC6OC(CO)C(OC7OC(CO)C(O)C(OC8OCC(O)C(O)C8O)C7OC7OC(CO)C(O)C(O)C7O)C(O)C6O)CCC5(C)[C@H]4CCC3(C)C1[C@@H]2C (stereo not given in full) | 9.48 | 
20 | Cc1c(N2C(=O)CS(=O)(=O)C2c2cccc(Oc3ccccc3)c2)c(=O)n(-c2ccccc2)n1C (stereo not given) | > 100 | 
21 | CCC1CN(C(=O)c2ccccc2)C(Cc2c[nH]c3ccccc23)C(=O)C1CC(=O)OC (stereo not given) | > 100 | 
22 | CC12CC3OC(=O)C1COC14OC5(C2C1=O)C(O)(CCC1C4CC(O)C2(O)CC=CC(=O)C12C)C(=O)OC35C (stereo not given) | > 100 | 
23 | NC(=O)c1c(NC(=O)c2ccccn2)sc2c1CCC(=O)C2 | > 100 | > 100
24 | COc1ccc(C(=O)/C=C/c2cccc([N+](=O)[O-])c2)c(OC)c1 | > 50 | 1.75
25 | CCOC(=O)C(NC(=O)c1ccco1)(Nc1nc2ccc(OCC)cc2s1)C(F)(F)F (stereo not given) | > 100 | 
26 | CCC(C)C1=C(OC(C)=O)[N+]2([O-])Oc3ccc(-c4c(OC(C)=O)c(OC(C)=O)c(-c5ccc(OC(C)=O)cc5)c(OC(C)=O)c4OC(C)=O)cc3OC2(C(C)CC)C(=O)N1OC(C)=O (stereo not given) | > 50 | 
27 | O=C(O)C1C2CCC(O2)C1C(=O)Nc1cccc2cccnc12 (stereo not given) | > 100 | 
28 | COc1cccc2c1Cc1cc(-c3ccccc3)[n+](C)n1-2 | > 100 | 
29 | O=C(C[n+]1ccc2ccccc2c1)c1ccc2ccc3ccccc3c2c1 | 21.3 | 
30 | NCCCCc1cc(O)c2c(c1O)C(=O)c1ccccc1C2=O | 26.8 | 
31 | Cc1ccccc1C(=O)N/N=C/c1ccc(Sc2nccn2C)c([N+](=O)[O-])c1 | > 100 | 
32 | CCn1c(-c2ccc(N=NNc3ccc(-c4n[nH]c(=S)n4CC)cc3)cc2)n[nH]c1=S | 8.17 | 
33 | CC(=O)C1=C(C)N(c2ccc(C)cc2)C2(O)C=CC(=O)C3C(=O)N(c4ccccc4)C(=O)C132 (stereo not given) | 74.3 | 
34 | COc1ccc2c(c1)[nH]c1c(/C=C/c3ccccc3)nccc12 | 51.8 | 
35 | Clc1cc2c(cc1Cl)CC(NCCN1CCCC1)CC2 (stereo not given) | 27.8 | 
36 | CCN(CC(=O)O)C(=O)c1cccnc1 | > 100 | 
37 | NCCSC(c1ccccc1)c1ccccc1 | 93.5 | 
38 | CCCCCCCCC/C=C/C=C/C(=O)NCC(=O)NC1C(O)C(O)C(Nc2ncnc3nc[nH]c23)OC1C(O)CO (stereo not given) |  | 0.00477
39 | COc1nc(C#CC2(O)CCCCC2)nc(OC)n1 | 19.6 | 
40 | C[C@H](CCC(=O)O)[C@H]1CC[C@@]2(C)[C@@H]3C(=O)C[C@H]4C(C)(C)[C@@H](O)CC[C@]4(C)[C@H]3C(=O)C[C@]12C | > 100 | 

These compounds were tested on EKVX NSCLC (assay: NCI tumour cell line growth inhibition, 48 h).

Row | SMILES | TGI [µM] | GI50 [µM]
41 | CCOC(=O)C1=NN(c2ccc(C)cc2)C2=CC(C)=NN(C)C(=S)N21 | > 100 | 
42 | O=C(c1cccs1)N(C(=S)OC12CC3CC(CC(C3)C1)C2)c1ccccc1 | 55.6 | 
43 | C(=N\NC1=NCCN1)/c1ccc(-c2cn3cc(/C=N/NC4=NCCN4)ccc3n2)cc1 | > 92.4 | 
44 | CC1CC[C@@]2(OC1)OC1C[C@H]3[C@@H]4CC=C5CC(OC6OC(CO)C(OC7OC(CO)C(O)C(OC8OCC(O)C(O)C8O)C7OC7OC(CO)C(O)C(O)C7O)C(O)C6O)CCC5(C)[C@H]4CCC3(C)C1[C@@H]2C (stereo not given in full) | 9.01 | 
45 | Nc1ccccc1S(=O)(=O)c1ccccc1 | > 100 | 
46 | Cc1c(N2C(=O)CS(=O)(=O)C2c2cccc(Oc3ccccc3)c2)c(=O)n(-c2ccccc2)n1C (stereo not given) | > 100 | 
47 | COc1cc2c(ccc3c4cc(OC)c(OC)cc4c[n+](C)c23)cc1O | > 71.5 | 
48 | CNC(=O)OCc1c(CO)nc(SC)n1C | > 100 | 
49 | CN(C)CC(CC1=C(CC(CN(C)C)N(C)C)CCC1)N(C)C (stereo not given) | > 100 | 
50 | CCC1CN(C(=O)c2ccccc2)C(Cc2c[nH]c3ccccc23)C(=O)C1CC(=O)OC (stereo not given) | > 100 | 
51 | CC12CC3OC(=O)C1COC14OC5(C2C1=O)C(O)(CCC1C4CC(O)C2(O)CC=CC(=O)C12C)C(=O)OC35C (stereo not given) | > 100 | 
52 | NC(=O)c1c(NC(=O)c2ccccn2)sc2c1CCC(=O)C2 | > 100 | 5.01
53 | O=c1cccccc1[O-].O=c1cccccc1[O-].[O]=[U+2]=[O] | > 100 | 
54 | COc1ccc(C(=O)/C=C/c2cccc([N+](=O)[O-])c2)c(OC)c1 | > 50 | > 50
55 | CCOC(=O)C(NC(=O)c1ccco1)(Nc1nc2ccc(OCC)cc2s1)C(F)(F)F (stereo not given) | > 100 | 
56 | CCC(C)C1=C(OC(C)=O)[N+]2([O-])Oc3ccc(-c4c(OC(C)=O)c(OC(C)=O)c(-c5ccc(OC(C)=O)cc5)c(OC(C)=O)c4OC(C)=O)cc3OC2(C(C)CC)C(=O)N1OC(C)=O (stereo not given) | 32.7 | 

Row | SMILES | TGI [µM] | GI50 [µM]
57 | O=C(O)C1C2CCC(O2)C1C(=O)Nc1cccc2cccnc12 (stereo not given) | > 100 | 
58 | COc1cccc2c1Cc1cc(-c3ccccc3)[n+](C)n1-2 | 8.22 | 
59 | O=C(OCN1C(=O)C2C3C=CC(C2C1=O)C1C2C(=O)N(COC(=O)C4CCCN4)C(=O)C2C31)C1CCCN1 (stereo not given) | > 100 | 
60 | O=C(C[n+]1ccc2ccccc2c1)c1ccc2ccc3ccccc3c2c1 | 19.3 | 
61 | NCCCCc1cc(O)c2c(c1O)C(=O)c1ccccc1C2=O | 33.5 | 
62 | Cc1ccccc1C(=O)N/N=C/c1ccc(Sc2nccn2C)c([N+](=O)[O-])c1 | > 100 | 
63 | CCn1c(-c2ccc(N=NNc3ccc(-c4n[nH]c(=S)n4CC)cc3)cc2)n[nH]c1=S | 75.4 | 
64 | CC(=O)C1=C(C)N(c2ccc(C)cc2)C2(O)C=CC(=O)C3C(=O)N(c4ccccc4)C(=O)C132 (stereo not given) | 95.5 | 
65 | COc1ccc2c(c1)[nH]c1c(/C=C/c3ccccc3)nccc12 | 29.6 | 
66 | Clc1cc2c(cc1Cl)CC(NCCN1CCCC1)CC2 (stereo not given) | 38.7 | 
67 | [N-]=[N+]=CC(=O)c1ccccc1C#CCCc1ccccc1 | 75.5 | 
68 | CCN(CC(=O)O)C(=O)c1cccnc1 | > 100 | 
69 | NCCSC(c1ccccc1)c1ccccc1 | 70.1 | 
70 | COc1nc(C#CC2(O)CCCCC2)nc(OC)n1 | 35.6 | 
71 | C[C@H](CCC(=O)O)[C@H]1CC[C@@]2(C)[C@@H]3C(=O)C[C@H]4C(C)(C)[C@@H](O)CC[C@]4(C)[C@H]3C(=O)C[C@]12C | > 100 | 
